PubChem BioAssay (NCI)
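Test compounds were applied to cells in 96-well plates for 48 hours at 5 doses. At the TGI there is no net growth.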

Assays:
Assay in all cases: DTP human tumour cell line panel, 48 h
A549 NSCLC = test system: A549 NSCLC
UO-31 renal = test system: UO-31 renal
MALME-3M melanoma = test system: MALME-3M melanoma
NCI-H522 lung = test system: NCI-H522 lung
NCI-H226 lung = test system: NCI-H226 lung
SF-295 CNS = test system: SF-295 CNS
U251 CNS = test system: U251 CNS
K-562 leukemia = test system: K-562 leukemia
HS 578T breast = test system: HS 578T breast
PC-3 prostate = test system: PC-3 prostate
MDA-N = test system: MDA-N
SF-539 CNS = test system: SF-539 CNS
LOX IMVI melanoma = test system: LOX IMVI melanoma
SF-268 CNS = test system: SF-268 CNS
SR leukemia = test system: SR leukemia
T-47D breast = test system: T-47D breast
UACC-257 melanoma = test system: UACC-257 melanoma
COLO 205 colon = test system: COLO 205 colon
NCI-H23 lung = test system: NCI-H23 lung
HL-60(TB) leukemia = test system: HL-60(TB) leukemia
MDA-MB-435 = test system: MDA-MB-435
NCI/ADR-RES ovarian = test system: NCI/ADR-RES ovarian
BT-549 breast = test system: BT-549 breast
CCRF-CEM leukemia = test system: CCRF-CEM leukemia
SK-OV-3 ovarian = test system: SK-OV-3 ovarian
EKVX NSCLC = test system: EKVX NSCLC
M14 melanoma = test system: M14 melanoma
CAKI-1 renal = test system: CAKI-1 renal
OVCAR-8 ovarian = test system: OVCAR-8 ovarian
SK-MEL-28 melanoma = test system: SK-MEL-28 melanoma
MCF7 breast = test system: MCF7 breast
NCI-H460 lung = test system: NCI-H460 lung
IGROV1 ovarian = test system: IGROV1 ovarian
HOP-62 NSCLC = test system: HOP-62 NSCLC
TK-10 renal = test system: TK-10 renal
KM12 colon = test system: KM12 colon
HCT-15 colon = test system: HCT-15 colon
SN12C renal = test system: SN12C renal
SNB-19 CNS = test system: SNB-19 CNS
786-0 renal = test system: 786-0 renal
RPMI-8226 leukemia = test system: RPMI-8226 leukemia
RXF 393 renal = test system: RXF 393 renal
DU-145 prostate = test system: DU-145 prostate
SK-MEL-2 melanoma = test system: SK-MEL-2 melanoma
SNB-75 CNS = test system: SNB-75 CNS
ACHN renal = test system: ACHN renal
HCC-2998 colon = test system: HCC-2998 colon
A498 renal = test system: A498 renal
MOLT-4 leukemia = test system: MOLT-4 leukemia
OVCAR-3 ovarian = test system: OVCAR-3 ovarian
SK-MEL-5 melanoma = test system: SK-MEL-5 melanoma
HOP-92 NSCLC = test system: HOP-92 NSCLC
HCT-116 colon = test system: HCT-116 colon
OVCAR-4 ovarian = test system: OVCAR-4 ovarian
HT29 colon = test system: HT29 colon
OVCAR-5 ovarian = test system: OVCAR-5 ovarian
UACC-62 melanoma = test system: UACC-62 melanoma
SW-620 colon = test system: SW-620 colon
MDA-MB-231 breast = test system: MDA-MB-231 breast

Work on `Clc1ccc(CCNC2(c3cc4ccccc4s3)CCCCC2)cc1Cl` yielded a TGI (A549 NSCLC) greater than 100 µM, a TGI (UO-31 renal) of 36.7 µM and a TGI (MALME-3M melanoma) of 36.9 µM. It also gave a TGI (NCI-H522 lung) of 43.9 µM, a TGI (NCI-H226 lung) of 40.7 µM and a TGI (SF-295 CNS) of 84.3 µM. It also gave a TGI (U251 CNS) of 65.4 µM, a TGI (K-562 leukemia) of 36.7 µM and a TGI (HS 578T breast) greater than 100 µM. For the same molecule, the TGI (PC-3 prostate) was greater than 100 µM, the TGI (MDA-N) was greater than 100 µM and the TGI (SF-539 CNS) was 46.7 µM. It also gave a TGI (LOX IMVI melanoma) of 35.6 µM, a TGI (SF-268 CNS) greater than 100 µM and a TGI (SR leukemia) of 32.5 µM. The TGI (T-47D breast) was 46 µM, the TGI (UACC-257 melanoma) was 42.7 µM and the TGI (COLO 205 colon) was 49.2 µM. For the same molecule, the TGI (NCI-H23 lung) was greater than 100 µM, the TGI (HL-60(TB) leukemia) was 40.9 µM and the TGI (MDA-MB-435) was greater than 100 µM. It also gave a TGI (NCI/ADR-RES ovarian) of 80.8 µM, a TGI (BT-549 breast) of 84.5 µM and a TGI (CCRF-CEM leukemia) of 31 µM. For the same molecule, the TGI (SK-OV-3 ovarian) was greater than 100 µM, the TGI (EKVX NSCLC) was 81.3 µM and the TGI (M14 melanoma) was greater than 100 µM. For the same molecule, the TGI (CAKI-1 renal) was greater than 100 µM, the TGI (OVCAR-8 ovarian) was greater than 100 µM and the TGI (SK-MEL-28 melanoma) was 87.2 µM. It also gave a TGI (MCF7 breast) of 33.5 µM, a TGI (NCI-H460 lung) of 40.3 µM and a TGI (IGROV1 ovarian) greater than 100 µM. For the same molecule, the TGI (HOP-62 NSCLC) was 84.3 µM, the TGI (TK-10 renal) was 65.9 µM and the TGI (KM12 colon) was 61.8 µM. For the same molecule, the TGI (HCT-15 colon) was 37.7 µM, the TGI (SN12C renal) was greater than 100 µM and the TGI (SNB-19 CNS) was greater than 100 µM. For the same molecule, the TGI (786-0 renal) was 36.8 µM, the TGI (RPMI-8226 leukemia) was 32.1 µM and the TGI (RXF 393 renal) was 36.7 µM. For the same molecule, the TGI (DU-145 prostate) was greater than 100 µM, the TGI (SK-MEL-2 melanoma) was 36.8 µM and the TGI (SNB-75 CNS) was 49.3 µM. For the same molecule, the TGI (ACHN renal) was 63.3 µM, the TGI (HCC-2998 colon) was 22.1 µM and the TGI (A498 renal) was 39.9 µM. For the same molecule, the TGI (MOLT-4 leukemia) was 37.9 µM, the TGI (OVCAR-3 ovarian) was 49.2 µM and the TGI (SK-MEL-5 melanoma) was 31.7 µM. It also gave a TGI (HOP-92 NSCLC) of 29.8 µM, a TGI (HCT-116 colon) of 29.3 µM and a TGI (OVCAR-4 ovarian) greater than 100 µM. The TGI (HT29 colon) was 87.1 µM, the TGI (OVCAR-5 ovarian) was 68.1 µM and the TGI (UACC-62 melanoma) was 37.2 µM. It also gave a TGI (SW-620 colon) greater than 100 µM and a TGI (MDA-MB-231 breast) of 43.2 µM.

Molecule `O=C1/C(=C/c2ccc(Cl)cc2)Oc2cc(O)ccc21` has a TGI (A549 NSCLC) of 91.7 µM, a TGI (UO-31 renal) of 47.1 µM and a TGI (NCI-H522 lung) of 70.7 µM. The TGI (NCI-H226 lung) was 62.3 µM, the TGI (SF-295 CNS) was greater than 100 µM and the TGI (U251 CNS) was 76.1 µM. It also gave a TGI (K-562 leukemia) of 38.5 µM, a TGI (HS 578T breast) of 46.6 µM and a TGI (PC-3 prostate) of 89.7 µM. The TGI (MDA-N) was greater than 100 µM, the TGI (SF-539 CNS) was 61.3 µM and the TGI (SF-268 CNS) was greater than 100 µM. The TGI (SR leukemia) was 47.1 µM, the TGI (T-47D breast) was greater than 100 µM and the TGI (UACC-257 melanoma) was 90.1 µM. The TGI (COLO 205 colon) was greater than 100 µM, the TGI (NCI-H23 lung) was greater than 100 µM and the TGI (HL-60(TB) leukemia) was 34.9 µM. It also gave a TGI (MDA-MB-435) greater than 100 µM, a TGI (NCI/ADR-RES ovarian) of 79.3 µM and a TGI (BT-549 breast) greater than 100 µM. The TGI (CCRF-CEM leukemia) was 52 µM, the TGI (SK-OV-3 ovarian) was 78.8 µM and the TGI (EKVX NSCLC) was 94.3 µM. For the same molecule, the TGI (M14 melanoma) was greater than 100 µM, the TGI (OVCAR-8 ovarian) was greater than 100 µM and the TGI (SK-MEL-28 melanoma) was greater than 100 µM. The TGI (MCF7 breast) was greater than 100 µM, the TGI (NCI-H460 lung) was 89.3 µM and the TGI (IGROV1 ovarian) was greater than 100 µM. For the same molecule, the TGI (HOP-62 NSCLC) was greater than 100 µM, the TGI (TK-10 renal) was 96.8 µM and the TGI (KM12 colon) was greater than 100 µM. For the same molecule, the TGI (HCT-15 colon) was greater than 100 µM, the TGI (SN12C renal) was greater than 100 µM and the TGI (SNB-19 CNS) was 87.4 µM. It also gave a TGI (786-0 renal) greater than 100 µM, a TGI (RPMI-8226 leukemia) greater than 100 µM and a TGI (RXF 393 renal) greater than 100 µM. The TGI (DU-145 prostate) was greater than 100 µM, the TGI (SNB-75 CNS) was greater than 100 µM and the TGI (ACHN renal) was 61.2 µM. The TGI (HCC-2998 colon) was greater than 100 µM, the TGI (MOLT-4 leukemia) was 48.1 µM and the TGI (OVCAR-3 ovarian) was 96.1 µM. For the same molecule, the TGI (SK-MEL-5 melanoma) was 51.5 µM, the TGI (HCT-116 colon) was greater than 100 µM and the TGI (OVCAR-4 ovarian) was greater than 100 µM. It also gave a TGI (UACC-62 melanoma) greater than 100 µM, a TGI (SW-620 colon) greater than 100 µM and a TGI (MDA-MB-231 breast) greater than 100 µM.
